Measurements: patent US20250295790A1, “LECTIN-TARGETING CONJUGATES” (Helmholtz-Zentrum für Infektionsforschung GmbH, priority 2021, published 2025)
Values joined by “and” are separate entries in the source; they are usually repeats but may differ in a detail not shown here. Equal entries are not always repeated.

Tests used:
P. aeruginosa PA14 = assay: Antibiotic susceptibility (MIC assay, broth microdilution); type: cell-based, Pseudomonas aeruginosa PA14
Description: Bacterial strains were streaked on LB-agar plates (1% agar) from glycerol stocks and incubated at 37° C. overnight. Colonies were picked from plate and dispersed in fresh MiGler-Hinton broth II (MHB II) to yield an OD600 of 0.08-0.13. This dispersion was diluted 1:100 in fresh MHB II, which was then used for the assay to achieve a final inoculum of 5×10^5 CFU/mL. 50 μL inoculum was mixed with 50 μL of the serial dilution in the corresponding well of the 96-well plate.
The different matrices were prepared under sterile conditions: (i) 5 mL human plasma and 1 mL sterile filtrate from an P. aeruginosa PA14 overnight culture in LB were mixed with 4 mL PBS; (ii) 1 mL sterile filtrate from an P. aeruginosa PA14 overnight culture was diluted in 9 mL PBS; (iii) PBS only and (iv) 5 mL human plasma and 1 mL LB were mixed with 4 mL PBS. 6 L of each compound dilution series was diluted in 115 L matrix (˜-1:20 dilution) in a 96-well format at time point T=−3 h or T=−10 min.
The plates prepared at T=−3 h were sealed with gas-permeable foil and incubated at 37° C. in a humid incubator. The other plates were kept at room temperature. At T=0 h, 50 µL of each well was mixed with 50 μL incoculum (as described above) in double-concentrated MHBII in a sterile 96-well plate.
The plates were sealed with gas-permeable foil and incubated at 37° C. for 18-20 h in a humid incubator. Growth inhibition was assessed by visual inspection and given MIC values are the lowest concentration of antibiotic at which there was no visible growth.

[1] = Microsomal stability assay, mouse S9 liver microsomes; type: in vitro ADME; details: for CLmic S9mouse: microsomal clearance, calculated from t1/2; for metabolic stability t1/2 MLM: mouse S9 liver fractions
Description: S9 liver microsomes (mouse and human, Thermo Fisher) were thawed slowly on ice. 20 mg/ml of microsomes, 2 μl of a 100 μM solution of every compound and 183 μl of 100 mM phosphate buffer were incubated 5 min at 37° C. in a water bath. Reactions were initiated using 10 μl of 20 mM NADPH (Roth). Samples were incubated in three replicates at 37° C. under gentle agitation at 150 rpm.
At 0, 5, 15, 30, and 60 min, reactions were terminated by the addition of 180 μl acetonitrile using a Mantis Formulatrix® dispenser. Samples were vortexed for 5 min using an Eppendorf MixMate® vortex mixer and centrifuged at 2270 ref for 20 min at 4° C. The supernatants were transferred to 96-well Greiner V-bottom plates, sealed and analysed according to the section HPLC-MS/MS analysis. Peak areas of the respective time point of the compounds were normalized to the peak area at time point 0 min. Then half-life was calculated using linear regression (Microsoft Excel®). Clint [μl/min/mg protein] was calculated using the following formula: […]
(§1) Cell samples as well as plasma stability, plasma protein binding and metabolic stability samples were analysed using an Agilent 1290 Infinity II coupled to an AB Sciex 6500plus mass spec-trometer. LC conditions were as follows: column: Agilent Zorbax Eclipse Plus C18, 50×2.1 mm, 1.8 m; temperature: 30° C.; injection volume: 5 l per sample; flow rate: 700 l/min. Solvents: A: water+0.1% formic acid; solvent B: 95% acetonitrile/5% H2O+0.1% formic acid. Gradient for 2, 36 and 37: 99% A from 0 min until 1 min; 99-0% A from 1.0 until 2.2 min, 0% A until 3.2 min. Gradient for naproxene: 99% A from 0 min until 1 min; 99-0% A from 1.0 until 5.5 min, 0% A until 6.0 min. Gradient for […] and […]: 99% A from 0 min until 1.0 min, 99-0% A from 1.0 until 3.5 min, 0% A until 3.7 min. Mass transitions for controls and compounds are depicted in table 5.

[2] = Plasma protein binding assay (RED), human plasma; type: in vitro ADME; details: human blood plasma
Description: Plasma protein binding was assessed using the rapid equilibrium device (RED) system from ThermoFisher. […] Dialysis buffer and plasma samples were added to the respective chambers according the manufacturer's protocol. The RED plate was sealed with a tape and incubated at 37° C. for 2 hours at 800 rpm on an Eppendorf MixMate® vortex-mixer. Then samples were withdrawn from the respective chambers. To 25 μl of each dialysis sample, 25 μl of plasma and to 25 μl of plasma sample, 25 l of dialysis buffer was added. […] Samples were incubated for 30 min on ice. Then samples were centrifuged at 4° C. at 2270 ref for 10 min. Supernatants were transferred to Greiner V-bottom 96-well plates and sealed with a tape. Then samples were subjected to HPLC-MS/MS analysis as described in the section ‘HPLC-MS/MS analysis’. The percentage of bound compound was calculated as follows: […]
Cell samples as well as plasma stability, plasma protein binding and metabolic stability samples were analysed using an Agilent 1290 Infinity II coupled to an AB Sciex 6500plus mass spec-trometer. LC conditions were as follows: column: Agilent Zorbax Eclipse Plus C18, 50×2.1 mm, 1.8 m; temperature: 30° C.; injection volume: 5 l per sample; flow rate: 700 l/min. Solvents: A: water+0.1% formic acid; solvent B: 95% acetonitrile/5% H2O+0.1% formic acid. […]

A549 cells = assay: Cell accumulation assay; type: cell-based, human; details: for intracellular drug levels: 15 min after incubation
Description: A549 cells were seed into 96-well-plates as described for the cytotoxicity assay. Cells were cultivated at 37° C. and 5% CO2 until they reached 95% confluency. Cells were treated with 2, 36 or 37 at a final concentration of 10 µg/ml or left untreated. Each condition was assayed in technical dupli-cates with two biological replicates. Cells were treated for 15 min, 30 min and 60 min. After incubation for the respective time point, cells were washed twice with pre-warmed PBS and were then lysed in MeOH and scratched from the surface. Supernatants from medium, wash fluids as well as the cell extracts were subjected to mass spectrometric analysis. For wash fluid and medium samples, calibration and QC samples were prepared using PBS as matrix and spiking the respective compounds into the matrix. For cell extract samples, calibration and QC samples were prepared using MeOH as matrix. For calibration and QC samples compounds were dispensed using a Mantis(R) Formulatrix. […] Supernatants were transferred to a Greiner V-bottom plate, sealed and subjected for HPLC-MS/MS analysis.
as §1

[3] = Matrix 1: PBS, pre-incubation 3 h
[4] = Matrix 1: PBS, pre-incubation <10 min
[5] = Matrix 2: 50% human blood plasma + 10% P. aeruginosa culture supernatant in PBS, pre-incubation 3 h
[6] = Matrix 2: 50% human blood plasma + 10% P. aeruginosa culture supernatant in PBS, pre-incubation <10 min
[7] = Matrix 3: 10% P. aeruginosa culture supernatant in PBS, pre-incubation 3 h
[8] = Matrix 3: 10% P. aeruginosa culture supernatant in PBS, pre-incubation <10 min
[9] = Matrix 4: 50% human blood plasma + 10% LB in PBS, pre-incubation 3 h
[10] = Matrix 4: 50% human blood plasma + 10% LB in PBS, pre-incubation <10 min

Structure (SMILES): CC(C)C[C@H](NC(=O)CNC(=O)[C@H](C)NC(=O)c1ccc(S[C@@H]2O[C@H](CO)[C@H](O)[C@H](O)[C@H]2O)cc1)C(=O)N[C@@H](C)C(=O)N[C@H]1CCN(c2cc3c(cc2F)c(=O)c(C(=O)O)cn3C2CC2)C1 [Compound 36]
- MIC (P. aeruginosa PA14; [3]): >25 µM
- MIC (P. aeruginosa PA14; [4]): >25 µM
- MIC (P. aeruginosa PA14; [5]): 0.1 µM
- MIC (P. aeruginosa PA14; [6]): 0.195 to 0.39 µM
- MIC (P. aeruginosa PA14; [7]): 0.195 to 3.13 µM
- MIC (P. aeruginosa PA14; [8]): 0.78 to 3.13 µM
- MIC (P. aeruginosa PA14; [9]): 0.78 to 6.25 µM
- MIC (P. aeruginosa PA14; [10]): ≥25 µM
- CLmic S9mouse [1]: 14 μL/min/mg protein
- metabolic stability t1/2 MLM [1]: 1.67 h
- plasma protein binding human [2]: 97% and 97.2 ± 4.8%
- intracellular cleavage to compound 2 (A549 cells): not the case
- intracellular concentration (A549 cells; 10 μg/ml, after 30 and 60 min): 0.013 to 0.016 µg/mL
- intracellular drug levels (A549 cells): very low intracellular drug levels

Structure (SMILES): CC(C)CC(NC(=O)CNC(=O)C(C)NC(=O)c1ccc(S(=O)(=O)NCC2OC(C)C(O)C(O)C2O)cc1)C(=O)NC(C)C(=O)NC1CCN(c2cc3c(cc2F)c(=O)c(C(=O)O)cn3C2CC2)C1 (stereo not drawn) [Compound 37]
- MIC (P. aeruginosa PA14; [3]): >25 µM
- MIC (P. aeruginosa PA14; [4]): >25 µM
- MIC (P. aeruginosa PA14; [5]): 0.1 to 0.195 µM
- MIC (P. aeruginosa PA14; [6]): 0.78 to 1.56 µM
- MIC (P. aeruginosa PA14; [7]): 0.39 to 3.13 µM
- MIC (P. aeruginosa PA14; [8]): 1.56 to 12.5 µM
- MIC (P. aeruginosa PA14; [9]): 0.78 to 6.25 µM
- MIC (P. aeruginosa PA14; [10]): ≥25 µM
- CLmic S9mouse [1]: 6.4 μL/min/mg protein
- metabolic stability t1/2 MLM [1]: 3.6 h
- plasma protein binding human [2]: 51% and 51.1 ± 13.3%
- intracellular cleavage to compound 2 (A549 cells): not the case
- intracellular drug levels (A549 cells): very low intracellular drug levels
